Experimental findings from ChEMBL document CHEMBL1129897 (Bioorg Med Chem Lett, 1997) are described below.

In the assay the target is 5-hydroxytryptamine receptor 2A (Rattus norvegicus, UniProt P14842). Nature of the assay: Tested in vitro for its ability to inhibit [3H]ketanserin binding to 5-hydroxytryptamine 2A receptor in rat frontal cortex membranes. In kind it is cell membranes, Membrane.
Chain of 5-hydroxytryptamine receptor 2A (P14842 whole entry): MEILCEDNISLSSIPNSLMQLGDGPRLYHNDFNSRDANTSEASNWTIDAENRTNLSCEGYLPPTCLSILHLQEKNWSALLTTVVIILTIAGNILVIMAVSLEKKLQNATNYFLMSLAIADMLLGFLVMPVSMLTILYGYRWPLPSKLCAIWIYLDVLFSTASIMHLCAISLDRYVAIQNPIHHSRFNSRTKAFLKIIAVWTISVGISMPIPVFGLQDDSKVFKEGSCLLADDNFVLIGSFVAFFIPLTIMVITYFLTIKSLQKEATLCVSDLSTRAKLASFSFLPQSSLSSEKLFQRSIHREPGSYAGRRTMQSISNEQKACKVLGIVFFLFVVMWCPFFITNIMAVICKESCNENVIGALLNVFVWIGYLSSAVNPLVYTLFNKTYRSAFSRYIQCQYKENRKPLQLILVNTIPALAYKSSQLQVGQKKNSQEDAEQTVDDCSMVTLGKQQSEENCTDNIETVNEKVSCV

`CCc1c(C)[nH]c2c1C(=O)CC(CN1CCC(C(=O)c3ccc(F)cc3)CC1)C2` (centres undefined): affinity was put at a Ki of 6.17 nM.
To `CCc1c(C)[nH]c2c1C(=O)CC(CN1CCC(c3noc4cc(F)ccc34)CC1)C2` (centres undefined) belongs 5.01 nM; to `CCc1c(C)[nH]c2c1C(=O)CC(CN1CCN(CCCC(=O)c3ccc(F)cc3)CC1)C2` (centres undefined), 398 nM.
To `CCc1c(C)[nH]c2c1C(=O)CC(CN1CCN(c3ccccc3OC)CC1)C2` (centres undefined) belongs 282 nM.
